Data reported in PubChem BioAssay (NCI).
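Following 48 hours of exposure in 96-well plates, responses at five concentrations were used to interpolate endpoints linearly. GI50: concentration for 50% inhibition of growth. TGI is the concentration that stops growth completely.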

Experiments:
Assay in all cases: NCI-60 cell line screen, 48 h
UACC-257 melanoma = system: UACC-257 melanoma
UACC-62 melanoma = system: UACC-62 melanoma
NCI/ADR-RES ovarian = system: NCI/ADR-RES ovarian
MDA-MB-435 = system: MDA-MB-435
HL-60(TB) leukemia = system: HL-60(TB) leukemia
HT29 colon = system: HT29 colon
A498 renal = system: A498 renal
786-0 renal = system: 786-0 renal
HOP-62 NSCLC = system: HOP-62 NSCLC
SF-268 CNS = system: SF-268 CNS

SMILES	TGI (UACC-257 melanoma) [µM]	TGI (UACC-62 melanoma) [µM]	TGI (NCI/ADR-RES ovarian) [µM]	TGI (MDA-MB-435) [µM]	TGI (HL-60(TB) leukemia) [µM]	TGI (HT29 colon) [µM]	TGI (A498 renal) [µM]	TGI (786-0 renal) [µM]	TGI (HOP-62 NSCLC) [µM]	TGI (SF-268 CNS) [µM]	GI50 (UACC-257 melanoma) [nM]	GI50 (UACC-62 melanoma) [nM]	GI50 (NCI/ADR-RES ovarian) [nM]	GI50 (MDA-MB-435) [nM]	GI50 (HL-60(TB) leukemia) [nM]	GI50 (HT29 colon) [nM]	GI50 (A498 renal) [nM]	GI50 (HOP-62 NSCLC) [nM]	GI50 (SF-268 CNS) [nM]
CS/C(C#N)=C(\C#N)SC	30.6	14.4	> 100	40.5	6.39	64.2	47.7	> 100	> 100	58	–	–	–	–	–	–	–	–	–
Cc1cccc(O)c1-c1nnc(CCCCCCCCc2nnc(-c3c(C)cccc3O)n2N)n1N	> 100	> 100	–	> 100	> 100	> 100	> 100	–	62	> 100	–	–	–	–	–	–	–	–	–
c1ccc(CSc2ccccc2CN2CCN(Cc3ccccc3SCc3ccccc3)CCN(Cc3ccccc3SCc3ccccc3)CC2)cc1	2.94	3.23	6.85	12	4.06	2.42	5.81	3.01	3.82	10.3	–	–	–	–	–	–	–	–	–
CCN1CCN(c2nc3ccccc3nc2C(=O)c2ccc(OC)cc2)CC1	35.3	45	> 100	> 100	> 100	> 100	> 100	64.8	55.5	> 100	–	–	–	–	–	–	–	–	–
c1ccc(CSC2(SCc3ccccc3)CCCC2)cc1	–	> 10	> 10	> 10	> 10	> 10	> 10	–	> 10	> 10	–	–	–	–	–	–	–	–	–
C[C@H]1C(=O)O[C@@H]1[C@H]1COC(C)(C)O1	> 100	> 100	> 100	> 100	> 100	–	> 100	–	> 100	> 100	–	–	–	–	–	–	–	–	–
COC(=O)C(=O)C(C(=O)C1=NS(=O)(=O)c2cc(S(N)(=O)=O)c(Cl)cc2N1)c1nc2ccc(C(=O)c3ccccc3)cc2[nH]c1=O (stereo unspecified)	> 100	> 100	–	–	–	> 100	> 100	> 100	–	> 100	–	–	–	–	–	–	–	–	–
[O-]c1c[n+](CCCC[n+]2cc([O-])on2)no1	> 100	> 100	> 100	> 100	> 100	> 100	> 100	> 100	> 100	> 100	–	–	–	–	–	–	–	–	–
Nc1ccc(Oc2ccc(C3(c4ccc(Oc5ccc(N)cc5)cc4)C4CC5C6CC7CC5C3C(C7)C6C4)cc2)cc1	> 100	> 100	> 100	82.9	> 100	> 100	18.9	> 100	> 100	> 100	–	–	–	–	–	–	–	–	–
Nc1nc(Cl)cc(NCCCNc2cc(Cl)nc(N)n2)n1	> 100	> 100	–	–	> 100	> 100	> 100	–	> 100	> 100	–	–	–	–	–	–	–	–	–
CN(C)CCCNC(=O)c1cc(NC(=O)c2cc(NS(=O)(=O)c3ccc4c(c3)C(=O)c3ccccc3C4=O)cn2C)cn1C	> 100	> 100	> 100	> 100	> 100	> 100	> 100	> 100	> 100	> 100	–	–	–	–	–	–	–	–	–
Cc1ccc(-c2cc(-c3ccc(Cl)cc3)nc(/N=C3\C(=O)N(CN4CCOCC4)c4ccccc43)n2)cc1	46.4	41.4	> 100	35	26.3	65.1	38.9	74.3	> 100	> 100	–	–	–	–	–	–	–	–	–
O=c1oc2ccccc2n1P(=O)(n1c(=O)oc2ccccc21)n1c(=O)oc2ccccc21	> 100	> 100	–	–	> 100	> 100	> 100	–	> 100	> 100	–	–	–	–	–	–	–	–	–
Cn1cc(-c2csc(-c3cn(C)c4ccc(Br)cc34)n2)c2cnccc21	3.63	3.21	3.91	3.22	3.31	3.09	3.67	–	3.49	3.67	1950	1720	2070	1760	1480	1600	1780	1900	1900
CN1C(=O)CN2C(Cl)(Cl)C2(c2ccccc2F)c2cc([N+](=O)[O-])ccc21 (stereo unspecified)	> 100	> 100	–	–	–	> 100	–	–	> 100	> 100	–	–	–	–	–	–	–	–	–
CC1=C(C#N)C23C(=O)c4ccccc4C(O)=C2C(=O)C=CC3(O)N1 (stereo unspecified)	4.56	6.4	> 100	9.37	15.2	5.02	37.6	28.1	51	26.2	–	–	–	–	–	–	–	–	–
Cc1ccccc1[P+](C)(c1ccccc1C)c1ccccc1C	15.8	25.7	58.8	21	–	19.1	49.9	93.7	71.8	> 100	–	–	–	–	–	–	–	–	–
CC(N)C(=O)OCN1C(=O)C2C3C=CC(C2C1=O)C1C2C(=O)N(COC(=O)C(C)N)C(=O)C2C31 (stereo unspecified)	75.4	49	–	–	62.2	> 100	–	37.6	> 100	47.9	–	–	–	–	–	–	–	–	–
CNC1C(O)C(NC)C2OC3(O)C(=O)CC(C)OC3OC2C1O (stereo unspecified)	> 100	> 100	> 100	> 100	> 100	> 100	–	> 100	> 100	> 100	–	–	–	–	–	–	–	–	–
Oc1cccc(-c2ccc3c4c2O[C@H]2c5[nH]c6ccccc6c5C[C@@]5(O)[C@@H](C3)N(CC3CC3)CC[C@]425)c1	–	–	4.69	3.1	4.03	3.09	–	2.97	–	3.06	–	–	–	–	–	–	–	–	–
CCN1C(=S)n2cccc2C1CC(=O)c1ccc(Cl)cc1 (stereo unspecified)	> 100	> 100	> 100	> 100	> 100	> 100	> 100	> 100	> 100	> 100	–	–	–	–	–	–	–	–	–
O=Nc1c(-c2c(O)[nH]c3ccccc23)[nH]c2ccccc12	> 72.3	11.1	> 100	> 39.7	12.3	> 57.8	13.9	> 49.9	> 48.6	> 74.1	–	–	–	–	–	–	–	–	–
C=C1C(=O)OC2/C=C(\C)C3OC3/C=C(/C(=O)OC)C(O)C(OC(=O)C3(C)OC3C)C12 (stereo unspecified)	3.45	5.19	–	–	–	3.63	19.6	3.26	35.8	29.9	–	–	–	–	–	–	–	–	–
CN(C)CC1CCCC(CN2CCCCC2)C1=O (stereo unspecified)	30.8	33.5	14.6	31.1	11.8	25.1	> 71.3	6.07	> 100	40.2	–	–	–	–	–	–	–	–	–
C=CCc1c(C)nc(C)nc1N/N=C/C=C/c1ccccc1	48.9	53.4	64.8	> 100	81.2	> 100	65.2	> 100	38.8	> 100	–	–	–	–	–	–	–	–	–
CC(C)OC(=O)Nc1cccc(Cl)c1	> 100	> 100	> 100	> 100	> 100	> 100	–	> 100	> 100	> 100	–	–	–	–	–	–	–	–	–
CC(=O)OCc1ccc2oc(=O)c(C(=O)Oc3cccc(Cl)c3)cc2c1	> 100	34.2	> 100	> 100	–	80.2	–	> 100	> 100	> 100	–	–	–	–	–	–	–	–	–
Cc1nc2c(O)cc3c4c(=O)n(C)c(=O)n(C)c4n(Cc4ccccc4)c3c2nc1C	33.1	34	74.9	33.9	53.8	32.2	81.7	32.8	33.6	32.9	–	–	–	–	–	–	–	–	–
NC(=O)c1ccc(NS(=O)(=O)c2ccc(N)cc2)nc1	> 100	> 100	> 100	> 100	> 100	> 100	> 100	> 100	> 100	> 100	–	–	–	–	–	–	–	–	–
CCCCC(C(=O)N/N=C/c1ccc([N+](=O)[O-])o1)C(=O)N/N=C/c1ccc([N+](=O)[O-])o1	–	11.5	5.91	25.2	6.71	5.16	41	5.5	28.8	20.3	–	–	–	–	–	–	–	–	–
